PubChem BioAssay (NCI)
Several values for one entry are separate records, joined by “and”; a condition that tells them apart may be missing. Equal values may be shown once.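 Where inhibition never reached the appropriate level, the endpoint shown equals the highest concentration tested. Otherwise, values were interpolated linearly from a five-concentration, 48-hour dose response in 96-well plates. GI50: concentration for 50% inhibition of growth. TGI denotes the concentration required for complete inhibition of growth.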

Columns and labels:
Assay in all cases: DTP human tumour cell line panel, 48 h; in the data active means GI50 below about 0.43 µM; inactive means the rest
HOP-62 NSCLC = tested on: HOP-62 NSCLC
SF-539 CNS = tested on: SF-539 CNS
BT-549 breast = tested on: BT-549 breast
SK-MEL-5 melanoma = tested on: SK-MEL-5 melanoma
M14 melanoma = tested on: M14 melanoma
KM12 colon = tested on: KM12 colon
DU-145 prostate = tested on: DU-145 prostate
SNB-75 CNS = tested on: SNB-75 CNS
A549 NSCLC = tested on: A549 NSCLC
NCI-H460 lung = tested on: NCI-H460 lung

CC[C@@]1(OC(=O)C(N)CCC(=O)O)C(=O)OCc2c1cc1n(c2=O)Cc2cc3ccccc3nc2-1 (some centres not stated)
0.36 µM: TGI (SK-MEL-5 melanoma)
1.2 µM: TGI (M14 melanoma)
0.0504 µM: TGI (DU-145 prostate)
3.37 µM: TGI (A549 NSCLC)
0.0754 µM: TGI (SF-539 CNS)
> 100 µM: TGI (BT-549 breast)
6.1 µM: TGI (KM12 colon)
1.35 µM: TGI (SNB-75 CNS)
0.125 µM: TGI (HOP-62 NSCLC)

CC(C)(C)C1CCP(=O)(c2ccccc2)CC1 (configuration not stated)
> 100 µM: TGI (HOP-62 NSCLC) | TGI (NCI-H460 lung) | TGI (SF-539 CNS) | TGI (SK-MEL-5 melanoma) | TGI (M14 melanoma) | TGI (KM12 colon) | TGI (SNB-75 CNS) | TGI (A549 NSCLC)

Cc1ccc(C)c(NC(=O)C(=O)CC(=O)c2cccc3ccccc23)c1
> 100 µM: TGI (HOP-62 NSCLC) | TGI (NCI-H460 lung) | TGI (SF-539 CNS) | TGI (SK-MEL-5 melanoma) | TGI (M14 melanoma) | TGI (KM12 colon) | TGI (SNB-75 CNS) | TGI (A549 NSCLC)

Cc1cn(C2CC(N=[N+]=[N-])C(CO)O2)c(=O)[nH]c1=O (configuration not stated)
inactive: GI50 (HOP-62 NSCLC) > 1000 µM | GI50 (M14 melanoma) > 1000 µM | GI50 (KM12 colon) 472 µM | GI50 (A549 NSCLC) 325 µM
> 1000 µM: TGI (HOP-62 NSCLC) | TGI (BT-549 breast) | TGI (SK-MEL-5 melanoma) | TGI (M14 melanoma) | TGI (KM12 colon) | TGI (DU-145 prostate) | TGI (A549 NSCLC)

CCOC(=O)C/C(N)=C(\C#N)C(=O)OCC
> 100 µM: TGI (NCI-H460 lung) | TGI (SF-539 CNS) | TGI (SK-MEL-5 melanoma) | TGI (M14 melanoma) | TGI (KM12 colon) | TGI (SNB-75 CNS) | TGI (A549 NSCLC)

Cc1nn2c(=O)n(-c3cccc(-n4nnc5c(-c6ccccc6)c(C)nn5c4=O)c3C)nnc2c1-c1ccccc1
50.1 µM: TGI (NCI-H460 lung)
64 µM: TGI (SF-539 CNS)
29.6 µM: TGI (M14 melanoma)
> 100 µM: TGI (HOP-62 NSCLC) | TGI (SNB-75 CNS) | TGI (A549 NSCLC)
33.8 µM: TGI (SK-MEL-5 melanoma)

O=S1c2ccccc2N=C(c2ccc3ccccc3c2)CC1c1ccccc1F (configuration not stated)
80.8 µM: TGI (SNB-75 CNS)
> 100 µM: TGI (HOP-62 NSCLC) | TGI (NCI-H460 lung) | TGI (SF-539 CNS) | TGI (SK-MEL-5 melanoma) | TGI (M14 melanoma) | TGI (KM12 colon) | TGI (A549 NSCLC)

c1cc2ccc3cc2cc1CNCCOCCNCc1ccc2ccc(cc2c1)CNCCOCCNC3
> 100 µM: TGI (HOP-62 NSCLC) | TGI (NCI-H460 lung) | TGI (SF-539 CNS) | TGI (BT-549 breast) | TGI (SK-MEL-5 melanoma) | TGI (M14 melanoma) | TGI (KM12 colon) | TGI (DU-145 prostate) | TGI (A549 NSCLC)
inactive: GI50 (HOP-62 NSCLC) > 100 µM | GI50 (NCI-H460 lung) > 100 µM | GI50 (SF-539 CNS) > 100 µM | GI50 (BT-549 breast) > 100000 nM | GI50 (SK-MEL-5 melanoma) > 100 µM | GI50 (M14 melanoma) > 100 µM | GI50 (KM12 colon) > 100 µM | GI50 (DU-145 prostate) > 100000 nM | GI50 (A549 NSCLC) > 100 µM

NC(=O)c1ccccc1NC(=O)C(=O)Nc1n[nH]c(N)n1
> 100 µM: TGI (HOP-62 NSCLC) | TGI (NCI-H460 lung) | TGI (SF-539 CNS) | TGI (SK-MEL-5 melanoma) | TGI (M14 melanoma) | TGI (KM12 colon) | TGI (SNB-75 CNS) | TGI (A549 NSCLC)

CC(N)CN.CC(N)CN.[Cl-].[O]=[Os+2]=[O] (configuration not stated)
inactive: GI50 (NCI-H460 lung) > 100 µM | GI50 (SF-539 CNS) > 100 µM | GI50 (SK-MEL-5 melanoma) 97.2 µM | GI50 (M14 melanoma) > 100 µM | GI50 (KM12 colon) > 100 µM | GI50 (SNB-75 CNS) > 100 µM | GI50 (A549 NSCLC) > 100 µM
> 100 µM: TGI (NCI-H460 lung) | TGI (SF-539 CNS) | TGI (SK-MEL-5 melanoma) | TGI (M14 melanoma) | TGI (KM12 colon) | TGI (SNB-75 CNS) | TGI (A549 NSCLC)

COc1ccc(C2c3cc4c(c(OC)c3CC3OCC(=O)C32)OCO4)cc1OC (configuration not stated)
0.221 µM and 1.01 µM: TGI (KM12 colon)
active: GI50 (NCI-H460 lung) < 0.01 µM | GI50 (BT-549 breast) < 10 nM | GI50 (M14 melanoma) < 0.01 µM | GI50 (KM12 colon) < 0.01 µM | GI50 (DU-145 prostate) < 10 nM | GI50 (A549 NSCLC) < 0.01 µM
14.3 µM: TGI (NCI-H460 lung)
> 100 µM: TGI (BT-549 breast) | TGI (M14 melanoma) | TGI (A549 NSCLC)

COc1ccc(/C=C/c2ccnc3ccccc23)cc1
31.7 µM: TGI (M14 melanoma)
30.8 µM: TGI (A549 NSCLC)
37.6 µM: TGI (SF-539 CNS)
30.1 µM: TGI (KM12 colon)
35.9 µM: TGI (HOP-62 NSCLC)
47.7 µM: TGI (NCI-H460 lung)
27.5 µM: TGI (SK-MEL-5 melanoma)
28 µM: TGI (DU-145 prostate)

NC(Cn1ccc(=O)c(O)c1)C(=O)O (configuration not stated)
> 100 µM: TGI (HOP-62 NSCLC) | TGI (NCI-H460 lung) | TGI (SF-539 CNS) | TGI (BT-549 breast) | TGI (SK-MEL-5 melanoma) | TGI (M14 melanoma) | TGI (KM12 colon) | TGI (DU-145 prostate) | TGI (A549 NSCLC)

CN(C(=O)C12C3C4C1C1C2C3C41C(=O)N(C)C(C)(C)C)C(C)(C)C (configuration not stated)
> 50 µM: TGI (HOP-62 NSCLC) | TGI (SF-539 CNS) | TGI (SK-MEL-5 melanoma) | TGI (M14 melanoma) | TGI (SNB-75 CNS) | TGI (A549 NSCLC)

O=c1c2cc(Br)ccc2[nH]c(=S)n1-c1ccccc1
> 100 µM: TGI (HOP-62 NSCLC) | TGI (NCI-H460 lung) | TGI (SF-539 CNS) | TGI (SK-MEL-5 melanoma) | TGI (M14 melanoma) | TGI (KM12 colon) | TGI (SNB-75 CNS) | TGI (A549 NSCLC)

O=c1[nH]cc(CO)c(=O)[nH]1
> 100 µM: TGI (HOP-62 NSCLC) | TGI (NCI-H460 lung) | TGI (SF-539 CNS) | TGI (BT-549 breast) | TGI (SK-MEL-5 melanoma) | TGI (M14 melanoma) | TGI (KM12 colon) | TGI (SNB-75 CNS) | TGI (A549 NSCLC)
inactive: GI50 (HOP-62 NSCLC) > 100 µM | GI50 (NCI-H460 lung) > 100 µM | GI50 (SF-539 CNS) > 100 µM | GI50 (BT-549 breast) > 100000 nM | GI50 (SK-MEL-5 melanoma) > 100 µM | GI50 (M14 melanoma) > 100 µM | GI50 (KM12 colon) > 100 µM | GI50 (SNB-75 CNS) > 100 µM | GI50 (A549 NSCLC) > 100 µM

Cc1ccc(NC(C(=O)c2ccccc2)c2ccccc2)cc1 (configuration not stated)
14.5 µM: TGI (SK-MEL-5 melanoma)
33.4 µM: TGI (M14 melanoma)
15.4 µM: TGI (DU-145 prostate)
11.8 µM: TGI (NCI-H460 lung)
39.1 µM: TGI (HOP-62 NSCLC)
inactive: GI50 (HOP-62 NSCLC) 9.75 µM | GI50 (NCI-H460 lung) 2.8 µM | GI50 (SF-539 CNS) 13 µM | GI50 (SK-MEL-5 melanoma) 2.84 µM | GI50 (M14 melanoma) 4 µM | GI50 (KM12 colon) 2.59 µM | GI50 (DU-145 prostate) 3180 nM | GI50 (SNB-75 CNS) 3.58 µM | GI50 (A549 NSCLC) 4.08 µM
> 100 µM: TGI (SF-539 CNS) | TGI (A549 NSCLC)
13.4 µM: TGI (KM12 colon)
20.3 µM: TGI (SNB-75 CNS)

O=C(O)/C(=C/c1ccccc1[N+](=O)[O-])c1cccs1
> 100 µM: TGI (HOP-62 NSCLC) | TGI (NCI-H460 lung) | TGI (SF-539 CNS) | TGI (SK-MEL-5 melanoma) | TGI (M14 melanoma) | TGI (KM12 colon) | TGI (SNB-75 CNS) | TGI (A549 NSCLC)

Cc1cc(NS(=O)(=O)c2ccc(NC(=O)COc3ccc(-c4cc5ccccc5[nH]4)cc3)cc2)no1
4.32 µM: TGI (M14 melanoma)
6.84 µM: TGI (SK-MEL-5 melanoma)
inactive: GI50 (HOP-62 NSCLC) 2.95 µM | GI50 (SF-539 CNS) 1.98 µM | GI50 (BT-549 breast) 2120 nM | GI50 (SK-MEL-5 melanoma) 2.34 µM | GI50 (M14 melanoma) 1.71 µM | GI50 (KM12 colon) 1.51 µM | GI50 (DU-145 prostate) 2220 nM | GI50 (SNB-75 CNS) 1.5 µM | GI50 (A549 NSCLC) 2.18 µM
6.39 µM: TGI (A549 NSCLC)
5.18 µM: TGI (DU-145 prostate)
7.74 µM: TGI (HOP-62 NSCLC)
4.61 µM: TGI (SF-539 CNS)
3.24 µM: TGI (KM12 colon)
5.97 µM: TGI (BT-549 breast)
4.68 µM: TGI (SNB-75 CNS)

CCOc1ccc(/C=N\N2C(=O)c3ccccc3C2=O)cc1
> 100 µM: TGI (HOP-62 NSCLC) | TGI (NCI-H460 lung) | TGI (SF-539 CNS) | TGI (SK-MEL-5 melanoma) | TGI (M14 melanoma) | TGI (KM12 colon) | TGI (SNB-75 CNS) | TGI (A549 NSCLC)

CC1(C)C(=O)CCC(=O)C(C)(C)C2=CC=C(O2)C(C)(C)C(=O)CCC(=O)C(C)(C)C2=CC=C1O2
> 100 µM: TGI (HOP-62 NSCLC) | TGI (NCI-H460 lung) | TGI (KM12 colon) | TGI (A549 NSCLC)

CC(C)(C)C1CCC(CI)(N=[N+]=[N-])CC1 (configuration not stated)
> 100 µM: TGI (HOP-62 NSCLC) | TGI (NCI-H460 lung) | TGI (SF-539 CNS) | TGI (SK-MEL-5 melanoma) | TGI (M14 melanoma) | TGI (KM12 colon) | TGI (SNB-75 CNS) | TGI (A549 NSCLC)
